The values that follow are results of earlier work, collected in patent US8530463B2, “Multimodal particulate formulations” (Hale Biopharma Ventures LLC, priority 2007, dated 2013).

Turning to `Cc1ncc2n1-c1ccc(Cl)cc1C(c1ccccc1F)=NC2` [Midazolam, 8-chloro-6-(2-fluorophenyl)-1-methyl-4H-imidazo[1,5-a]benzodiazepine], the “solubility in most aqueous solutions” value (neutral pH (e.g. about 6 to 8)) is “relatively insoluble”. In addition, under “pH lower than about 4”, the solubility in water entry is “soluble”.
